Where two headings read alike, the source gives them in different places.
What was measured:
M1 [1] = molecular target: T1, M1 (Homo sapiens, UniProt P11229); settings: Data from Poster, CNS Summit (2013); cited from earlier work
T1 sequence (P11229 1-460): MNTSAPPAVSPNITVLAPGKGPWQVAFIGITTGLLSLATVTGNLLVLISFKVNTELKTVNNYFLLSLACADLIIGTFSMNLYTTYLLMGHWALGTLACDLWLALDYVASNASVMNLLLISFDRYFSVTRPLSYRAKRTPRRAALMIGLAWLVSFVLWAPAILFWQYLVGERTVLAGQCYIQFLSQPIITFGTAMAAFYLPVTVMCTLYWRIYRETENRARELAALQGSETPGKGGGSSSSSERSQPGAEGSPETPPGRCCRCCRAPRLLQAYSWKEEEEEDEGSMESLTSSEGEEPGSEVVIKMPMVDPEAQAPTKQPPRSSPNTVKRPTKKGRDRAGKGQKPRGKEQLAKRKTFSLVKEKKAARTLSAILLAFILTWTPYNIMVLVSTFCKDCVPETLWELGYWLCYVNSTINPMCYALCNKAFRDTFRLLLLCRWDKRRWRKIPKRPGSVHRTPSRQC

M2 [2] = molecular target: T2, M2 (Homo sapiens, UniProt P08172); settings: Data from Poster, CNS Summit (2013); cited from earlier work
T2 sequence (P08172 1-466): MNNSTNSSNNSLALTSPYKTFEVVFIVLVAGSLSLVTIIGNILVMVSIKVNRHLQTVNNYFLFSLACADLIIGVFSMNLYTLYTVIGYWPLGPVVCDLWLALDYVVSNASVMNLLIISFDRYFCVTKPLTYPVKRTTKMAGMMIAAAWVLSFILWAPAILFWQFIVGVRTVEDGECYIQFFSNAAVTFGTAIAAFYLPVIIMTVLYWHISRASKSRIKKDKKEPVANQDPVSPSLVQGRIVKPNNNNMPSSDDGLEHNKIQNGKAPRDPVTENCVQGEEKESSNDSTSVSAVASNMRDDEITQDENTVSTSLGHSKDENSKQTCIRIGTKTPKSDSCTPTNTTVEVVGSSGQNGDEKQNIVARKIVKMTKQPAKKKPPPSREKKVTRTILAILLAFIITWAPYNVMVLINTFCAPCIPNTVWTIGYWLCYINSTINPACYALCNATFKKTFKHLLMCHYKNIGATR

M3 = M3 (Homo sapiens, UniProt P20309); settings: Data from Poster, CNS Summit (2013); cited from earlier work
M4 = molecular target: T3, M4 (Homo sapiens, UniProt P08173); settings: Data from Poster, CNS Summit (2013); cited from earlier work
T3 sequence (P08173 1-479): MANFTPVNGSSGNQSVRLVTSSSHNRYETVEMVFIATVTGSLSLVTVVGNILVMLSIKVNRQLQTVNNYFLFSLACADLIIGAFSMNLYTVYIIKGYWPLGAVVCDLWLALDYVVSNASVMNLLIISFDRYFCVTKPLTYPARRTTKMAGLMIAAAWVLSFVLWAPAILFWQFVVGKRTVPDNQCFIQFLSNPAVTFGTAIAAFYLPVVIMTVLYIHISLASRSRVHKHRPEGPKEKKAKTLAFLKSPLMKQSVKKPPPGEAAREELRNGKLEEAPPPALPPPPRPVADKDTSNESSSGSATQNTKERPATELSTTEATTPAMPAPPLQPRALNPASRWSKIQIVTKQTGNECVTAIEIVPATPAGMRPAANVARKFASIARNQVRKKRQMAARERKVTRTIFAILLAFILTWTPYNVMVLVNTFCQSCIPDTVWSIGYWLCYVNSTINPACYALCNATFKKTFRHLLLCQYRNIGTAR

Sigma1 [3] = molecular target: T4, Sigma1 (Homo sapiens, UniProt Q99720); settings: Data from Poster, CNS Summit (2013); cited from earlier work
M2 [4] = molecular target: T2, M2; assay: Muscarinic M2 receptor Ki determination (NIMH PDSP); type: binding
Procedure: (§1) The compounds from the above Examples were tested for Sigma-1 and muscarinic M1-M5) activities. Ki determinations were generously provided by the National Institute of Mental Health's Psychoactive Drug Screening Program (PDSP), Contract #HHSN-271-2013-00017-C (NIMH PDSP). The NIMH PDSP is directed by Bryan L. Roth M D, PhD at the University of North Carolina at Chapel Hill and Project Officer Jamie Driscoll at NIMH, Bethesda Md., USA. Procedures employed by the PDSP are described in the NIMH PDSP Assay Protocol Book, Version II and follow published literature protocols.

M5 = molecular target: T5, M5 (Homo sapiens, UniProt P08912); assay: Muscarinic M5 receptor Ki determination (NIMH PDSP); type: binding
T5 sequence (P08912 1-532): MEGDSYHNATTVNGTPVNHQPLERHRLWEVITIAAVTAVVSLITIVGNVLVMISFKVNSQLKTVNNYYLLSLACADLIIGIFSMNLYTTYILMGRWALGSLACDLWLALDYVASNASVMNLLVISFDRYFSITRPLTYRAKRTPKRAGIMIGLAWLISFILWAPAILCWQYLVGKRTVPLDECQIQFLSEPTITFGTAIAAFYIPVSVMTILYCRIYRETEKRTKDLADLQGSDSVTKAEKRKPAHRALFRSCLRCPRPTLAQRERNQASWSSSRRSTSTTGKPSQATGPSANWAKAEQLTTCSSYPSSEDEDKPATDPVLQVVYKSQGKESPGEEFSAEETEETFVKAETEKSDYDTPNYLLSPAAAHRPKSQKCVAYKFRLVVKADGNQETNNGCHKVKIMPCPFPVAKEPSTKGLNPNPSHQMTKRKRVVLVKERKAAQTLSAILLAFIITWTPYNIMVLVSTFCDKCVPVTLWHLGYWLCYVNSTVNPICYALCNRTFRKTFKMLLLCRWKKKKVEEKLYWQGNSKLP
Procedure: as §1

Sigma1 [5] = molecular target: T4, Sigma1; assay: Sigma-1 receptor Ki determination (NIMH PDSP); type: binding
Procedure: as §1

M1 [6] = molecular target: T1, M1; assay: Muscarinic M1 receptor Ki determination (NIMH PDSP); type: binding
Procedure: as §1

T4 sequence (Q99720 whole entry): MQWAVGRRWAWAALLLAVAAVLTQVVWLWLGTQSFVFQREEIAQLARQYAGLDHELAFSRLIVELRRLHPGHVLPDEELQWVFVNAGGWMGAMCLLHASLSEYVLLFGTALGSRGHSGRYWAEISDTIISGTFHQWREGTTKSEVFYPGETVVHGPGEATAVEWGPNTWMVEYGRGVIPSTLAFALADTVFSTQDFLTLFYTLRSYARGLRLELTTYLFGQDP
M3, sequence (P20309 whole entry): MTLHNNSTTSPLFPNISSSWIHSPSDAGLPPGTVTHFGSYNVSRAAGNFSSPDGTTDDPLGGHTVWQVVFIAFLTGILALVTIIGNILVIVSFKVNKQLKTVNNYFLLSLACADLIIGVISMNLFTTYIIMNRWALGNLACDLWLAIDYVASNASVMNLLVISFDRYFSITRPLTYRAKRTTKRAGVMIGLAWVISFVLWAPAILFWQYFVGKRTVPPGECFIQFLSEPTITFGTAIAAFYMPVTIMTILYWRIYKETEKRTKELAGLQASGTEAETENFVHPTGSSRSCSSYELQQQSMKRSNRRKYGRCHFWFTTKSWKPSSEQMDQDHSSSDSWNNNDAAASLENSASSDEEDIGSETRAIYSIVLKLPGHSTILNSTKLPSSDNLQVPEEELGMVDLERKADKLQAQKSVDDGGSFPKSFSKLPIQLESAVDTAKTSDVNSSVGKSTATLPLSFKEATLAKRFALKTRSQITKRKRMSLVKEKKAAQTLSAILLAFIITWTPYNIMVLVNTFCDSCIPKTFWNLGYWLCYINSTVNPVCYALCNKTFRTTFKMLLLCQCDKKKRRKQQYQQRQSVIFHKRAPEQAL

Compound | Ki (M1 [1]) | Ki (M2 [2]) | Ki (M3) | Ki (M4) | Ki (Sigma1 [3]) | Ki (M2 [4]) | Ki (M5) | Ki (Sigma1 [5]) | Ki (M1 [6])
CN(C)CC1CCOC1(c1ccccc1)c1ccccc1 (stereo not drawn) [ANAVEX 2-73] | 3320 nM | 3970 nM | 5330 nM | 5190 nM | 860 nM | – | – | – | –
CN(CCCC1(c2ccc(F)cc2)OCc2cc(C#N)ccc21)C1=NCCCC1 (stereo not drawn) [Example 3, 1-(4-fluorophenyl)-1-{3-[methyl(3,4,5,6-tetrahydropyridin-2-yl)amino]propyl}-1,3-dihydro-2-benzo-furan-5-carbonitrile] | – | – | – | – | – | 2570 nM | 1160 nM | 230 nM | 1500 nM

From patent US9517232B2, “Compounds for treatment of alzheimer's disease” (Medi Synergics, LLC, priority 2013, dated 2016)
